Data reported in doi:10.1101/2025.08.29.673196v2, “Development and characterization of Novel Small Molecule Inhibitors Targeting LAG-3 Protein” (biorxiv, 2025).

These molecules were tested against T1, LAG-3 (biotinylated LAG-3 of HTRF LAG-3/MHCII binding assay) (Homo sapiens, UniProt P18627) (assay: HTRF LAG-3/MHCII binding inhibition).
T1 construct: gene LAG3; biotinylated LAG-3 reagent of Revvity HTRF LAG-3/MHCII kit
T1 sequence (P18627 23-450 limits assumed): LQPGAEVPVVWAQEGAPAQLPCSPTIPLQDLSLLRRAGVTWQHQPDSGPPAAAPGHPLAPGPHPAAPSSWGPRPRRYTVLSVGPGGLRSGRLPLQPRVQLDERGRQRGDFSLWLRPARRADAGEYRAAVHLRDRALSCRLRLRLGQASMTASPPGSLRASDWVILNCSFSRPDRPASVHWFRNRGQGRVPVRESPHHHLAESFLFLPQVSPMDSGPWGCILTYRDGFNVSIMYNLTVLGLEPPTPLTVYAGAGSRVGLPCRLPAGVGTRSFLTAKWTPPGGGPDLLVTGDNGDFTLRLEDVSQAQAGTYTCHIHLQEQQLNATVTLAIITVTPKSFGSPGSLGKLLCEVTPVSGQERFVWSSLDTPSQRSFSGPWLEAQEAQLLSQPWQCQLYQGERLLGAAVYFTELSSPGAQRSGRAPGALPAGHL

IC50 [nM]	SMILES
21000	Cc1cc(=O)oc2cc(NC(=O)c3cc(NC(=O)c4ccccc4)ccc3Oc3ccc(C(=O)O)cc3)ccc12 [LG-125]
602	Cc1cc(=O)oc2cc(NC(=O)c3cc(NC(=O)c4cccc(C5(C(F)(F)F)CCC5)c4)ccc3Oc3ccc(C(=O)O)cc3)ccc12 [LG-131]
371	COc1ccc(OC)c(NC(=O)C(=O)Nc2ccc(Oc3ccc(C(=O)O)cc3)c(C(=O)Nc3ccc4c(C)cc(=O)oc4c3)c2)c1 [LG-164]
467	Cc1cc(=O)oc2cc(NC(=O)c3cc(NS(=O)(=O)N4CCC(c5ccccc5)CC4)ccc3Oc3ccc(C(=O)O)cc3)ccc12 [LG-193]
